Test results as given in publication PMC12165416, “HarmGR13 mediates myo-inositol taste perception in Helicoverpa armigera larvae” (PLOS Genetics, 2025).

Assays:
Assay in all cases: two-electrode voltage clamp, Xenopus oocytes, inward current
Format in all cases: cell-based
HarmGR13 [1] = target: T1, HarmGR13 (Helicoverpa armigera, UniProt Z9NT97MFL8); conditions: Ringer's solution pH 7.6, -80 mV; agonist; dose-response curve in Fig 5B, EC50 not given
T1 construct: full-length, 436 aa; cDNA from larval maxillary galea; pCS2+ cRNA injected into Xenopus laevis oocytes; expressed alone
T1 sequence (Z9NT97MFL8 1-436): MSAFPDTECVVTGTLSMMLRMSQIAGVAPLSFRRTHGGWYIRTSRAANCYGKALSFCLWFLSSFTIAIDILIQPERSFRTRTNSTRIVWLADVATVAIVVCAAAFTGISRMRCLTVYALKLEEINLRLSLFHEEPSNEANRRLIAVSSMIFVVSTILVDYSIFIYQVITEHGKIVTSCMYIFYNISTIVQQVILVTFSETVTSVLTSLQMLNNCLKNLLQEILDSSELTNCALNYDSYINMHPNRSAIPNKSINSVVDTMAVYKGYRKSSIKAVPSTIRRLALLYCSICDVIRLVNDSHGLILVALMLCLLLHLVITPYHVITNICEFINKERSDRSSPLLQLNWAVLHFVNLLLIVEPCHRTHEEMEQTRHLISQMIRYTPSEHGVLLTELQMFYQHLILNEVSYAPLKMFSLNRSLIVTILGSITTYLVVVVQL

HarmGR13 [2] = target: T2, HarmGR13 (Helicoverpa armigera, UniProt Z9NT97MFL8, D92A); conditions: Ringer's solution pH 7.6, -80 mV; 500 mM ribose
T2 construct: full-length, 436 aa; cDNA from larval maxillary galea; pCS2+ cRNA injected into Xenopus laevis oocytes; expressed alone
T2 sequence (Z9NT97MFL8 1-436 D92A): T1 sequence (Z9NT97MFL8 1-436)

HarmGR13 [3] = target: T3, HarmGR13 (Helicoverpa armigera, UniProt Z9NT97MFL8, D159A); conditions: Ringer's solution pH 7.6, -80 mV; 500 mM ribose
T3 construct: full-length, 436 aa; cDNA from larval maxillary galea; pCS2+ cRNA injected into Xenopus laevis oocytes; expressed alone
T3 sequence (Z9NT97MFL8 1-436 D159A): T1 sequence (Z9NT97MFL8 1-436)

HarmGR13 [4] = target: T3, HarmGR13; conditions: Ringer's solution pH 7.6, -80 mV; 100 mM inositol
HarmGR13 [5] = target: T2, HarmGR13; conditions: Ringer's solution pH 7.6, -80 mV; 100 mM inositol

SMILES | threshold concentration (HarmGR13 [1]) | inward current at 500 mM (HarmGR13 [2]) | inward current at 500 mM (HarmGR13 [3]) | inward current at 100 mM (HarmGR13 [4]) | inward current at 100 mM (HarmGR13 [5])
OC1OC[C@@H](O)[C@@H](O)[C@H]1O (stereo partly drawn) [ribose] | 10 mM | each of three mutated HarmGR13 did not show any inward currents | each of three mutated HarmGR13 did not show any inward currents |  | 
O[C@H]1[C@H](O)[C@@H](O)[C@H](O)[C@@H](O)[C@H]1O [myo-inositol] | 1 mM |  |  | each of three mutated HarmGR13 did not show any inward currents | each of three mutated HarmGR13 did not show any inward currents
